≈ marks a conversion by molar mass, not a printed value.

Data set [1] in a line: aqueous room temperature solubility. The format is physicochemical. The conditions noted are these: for solubility: water, aqueous, room temperature. On the procedure:
(§1) The aqueous room temperature solubilities of Compounds A and Compound B is 6.9 μg/mL and 2.0 μg/mL, respectively. Daily doses of Compound A ranging from 10 mg to 100 mg per day have been administered to approximately 1000 subject in clinical studies to date. […] Therefore a controlled release dosage is clearly needed for Compound A.

A short description of data set [2]: pharmacokinetic parameters of Compound A in monkeys. The conditions noted are these: monkey, in vivo, 10 mg/kg PO. The procedure:
as §1

For `CCOc1cc([C@@H](CS(C)(=O)=O)N2C(=O)c3cccc(NC(C)=O)c3C2=O)ccc1OC` [Compound A, (S)—N-{2-[1-(3-ethoxy-4-methoxy-phenyl)-2-methanesulfonylethyl]-1,3-dioxo-2,3-dihydro-1H-isoindol-4-yl}acetamide], the “aqueous solubility of amorphous form compared to crystalline forms” value in data set [1] (amorphous form vs crystalline forms) is recorded as “greater aqueous solubility”. In data set [1], the concentration in solution (solubility) was 6.9 µg/mL (≈ 15 µM). Besides, in data set [2], the half-life (usually how long it takes for the measured level to halve) was roughly 2 h.
Turning to `CCOc1cc([C@@H](CS(C)(=O)=O)N2Cc3cccc(NC(=O)C4CC4)c3C2=O)ccc1OC` [Compound B, cyclopropanecarboxylic acid {2-[(1S)-1-(3-ethoxy-4-methoxy-phenyl)-2-methanesulfonyl-ethyl]-3-oxo-2,3-dihydro-1H-isoindol-4-yl}-amide], the concentration in solution in data set [1] (solubility) was 2 µg/mL (≈ 4.23 µM).

The values are drawn from patent US9532977B2, “Controlled release oral dosage forms of poorly soluble drugs and uses thereof” (Celgene Corporation, priority 2010, dated 2017).
